Measured values taken from patent US20220315578A1, “BRD9 BIFUNCTIONAL DEGRADERS AND THEIR METHODS OF USE” (NOVARTIS AG, priority 2019, published 2022).

Molecular target: T1, BRD9-GFP (Homo sapiens, UniProt Q9H8M2)
T1 construct: CHYSEL (2A cis-acting hydrolase element) remnant after GFP; mCherry is split off as a separate protein (C); expressed in transfected cells; host or cells: HEK293A cells (Invitrogen R70507), lentiviral transduction with pLenti6-BRD9-GFP-CHYSEL-mCherry, blasticidin selection
T1 sequence (Q9H8M2 1-597): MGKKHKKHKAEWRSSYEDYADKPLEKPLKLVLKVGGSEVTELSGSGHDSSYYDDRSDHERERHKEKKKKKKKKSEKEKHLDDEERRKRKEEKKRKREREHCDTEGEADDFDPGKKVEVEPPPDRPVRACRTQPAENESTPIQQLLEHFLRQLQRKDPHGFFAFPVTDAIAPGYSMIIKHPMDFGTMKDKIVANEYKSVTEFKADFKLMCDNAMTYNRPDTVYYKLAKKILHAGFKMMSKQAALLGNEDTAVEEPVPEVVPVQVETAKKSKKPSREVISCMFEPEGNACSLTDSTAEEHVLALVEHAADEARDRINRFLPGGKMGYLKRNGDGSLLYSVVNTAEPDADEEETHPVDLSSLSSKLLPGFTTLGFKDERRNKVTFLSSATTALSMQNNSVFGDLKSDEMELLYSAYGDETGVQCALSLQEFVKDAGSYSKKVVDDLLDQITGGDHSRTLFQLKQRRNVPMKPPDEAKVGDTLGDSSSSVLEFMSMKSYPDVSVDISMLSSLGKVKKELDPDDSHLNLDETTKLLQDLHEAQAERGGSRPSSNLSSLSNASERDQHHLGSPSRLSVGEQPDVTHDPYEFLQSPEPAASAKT
Test: BRD9-GFP protein abundance flow cytometry assay in HEK293A cells
Format: cell-based
Settings: HEK293A-BRD9-GFP-CHYSEL-mCherry cells; for BRD9 Deg Amax %: 24 h, % protein remaining at the concentration at which maximum degradation is seen; for DC50: 24 h at 37° C., 10-point 1:3 dilution, concentration at which 50% maximal degradation was observed
Description: Compounds of the invention were tested in the following cellular assays. The terms in Table 1 are defined as follows: DC50 refers to the concentration at which 50% maximal degradation was observed; deg Amax is the extent of degradation and the value refers to the % protein remaining at the concentration at which maximum degradation is seen.
BRD9-GFP protein abundance flow cytometry assay in HEK293A cells: Degradation of BRD9 was measured in HEK293A cells expressing BRD9-GFP and mCherry from a stably integrated second generation bicistronic BRD9-GFP-CHYSELmCherry construct. Reduction of the GFP signal measured by flow cytometry served as readout for BRD9 degradation after degrader treatment.
The bicistronic BRD9-GFP-CHYSEL-mCherry construct is based on a pLenti6-DEST vector backbone where a GFP-CHYSEL-mCherry cassette was synthesized and inserted downstream of the DEST cassette by Gibson assembly resulting in the new gateway compatible vector pLenti6-DEST-GFP-CHYSEL-mCherry to allow Gateway cloning with pENTR221-BRD9 (w/o ATG) to obtain the final sensor construct pLenti6-BRD9-GFP-CHYSEL-mCherry.
HEK293 Å-BRD9-GFP-CHYSEL-mCherry sensor cells were generated by lentiviral vector transduction using the pLenti6-BRD9-GFP-CHYSEL-mCherry sensor construct described before. […] The mix was incubated for another 20 min at RT and then added to 1 ml of a freshly prepared suspension of HEK293FT cells in a well of a 6-well plate (concentration 1.2×10^6 cells/ml). 1 day after transfection, the medium was replaced with 1.5 ml of complete growth medium (DMEM high Glucose+10% FCS+1% L-Glutamine+1% NEAA+1% NaPyr.). 48 h post transfection supernatant containing viral transducing particles was collected and frozen at −80° C. […] Infection was performed with […] of collected supernatant containing viral transducing particles in 1 ml medium including 8 μg/ml polybrene. 24 h post infection, stably transfected cells were selected with blasticidin at a concentration of 8 μg/ml.
Stable HEK293 Å-BRD9-GFP-CHYSEL-mCherry cells were maintained in complete growth medium (DMEM high Glucose+10% FCS+1% L-Glutamine+1% NEAA+1% NaPyr.) with passaging performed twice per week. On Day 0, HEK293 Å-BRD9-GFP-CHYSEL-mCherry cells were seeded at 10,000 cells/well in a 96-well microtiter plate in […] complete medium. On Day 1, cells were treated in duplicate with 10-point 1:3 dilution series of compound using the HP D300 Digital Dispenser (Tecan). DMSO concentrations were normalized across the plate to 0.1%. On Day 2, after 24 h of incubation at 37° C., treatment media was discarded, cells rinsed with 100 ul/well PBS and then detached using 40 ul trypsin/well for 5 min. Trypsin was neutralized with 100 ul/well PBS+20% FCS). Flow cytometry was performed on the samples using the Beckman Coulter CytoFLEX flow cytometer. Cell identification was then performed using forward (FSC) vs. side scatter (SSC) plots. Single cell discrimination is performed using FSC-Width (FSC-W) vs. FSC-Height (FSC-H) plots. Median GFP/mCherry ratio values for 5,000 single cells are used to determine BRD9 levels. Median GFP/mCherry ratio values from HEK293 Å-mCherry are used as a background signal and thus defining 0% BRD9 signal. Median GFP/mCherry ratio values from DMSO treated HEK293 Å-BRD9-GFP-CHYSEL-mCherry are used to define 100% BRD9 signal for subsequent DC50 curves (concentration at 50% BRD9 degradation). Concentration response curves plotting relative reduction of the GFP/mCherry ratio signal (measured by flow cytometry) versus 10 compound concentrations (starting concentration […], 3 fold dilution steps) of the compounds allowed generation of DC50 values. Data is shown in Tables 2 and 3, in which, DC50 refers to the concentration at which 50% maximal degradation was observed; deg Amax is the extent of degradation and the value refers to the % protein remaining at the concentration at which maximum degradation is seen.

SMILES	BRD9 Deg Amax %	DC50
CCCCn1cc(-c2cc(OC)c(OC3CCN(CC4CCN(C(=O)c5ccc(Cl)c(N6CCC(=O)NC6=O)c5)CC4)CC3)c(OC)c2)c2ccncc2c1=O [Compound B9, 1-(5-(4-((4-(4-(2-butyl-1-oxo-1,2-dihydro-2,7-naphthyridin-4-yl)-2,6-dimethoxyphenoxy)piperidin-1-yl)methyl)piperidine-1-carbonyl)-2-chlorophenyl)dihydropyrimidine-2,4(1H,3H)-dione]	14.33%	0.001 µM
COc1cc(-c2cn(C)c(=O)c(C)c2C)cc(OC)c1OCC1CCN(CC2CCN(C(=O)c3ccc(Cl)c(N4CCC(=O)NC4=O)c3)CC2)CC1 [Compound A19, 1-(2-Chloro-5-(4-((4-((2,6-dimethoxy-4-(1,4,5-trimethyl-6-oxo-1,6-dihydropyridin-3-yl)phenoxy)methyl)piperidin-1-yl)methyl)piperidine-1-carbonyl)phenyl)dihydropyrimidine-2,4(1H,3H)-dione]	17.02%	0.003 µM
CCCCn1cc(-c2cc(OC)c(CCN3CCC(OC4CCN(C(=O)c5ccc(OC)c(N6CCC(=O)NC6=O)c5)CC4)CC3)c(OC)c2)c2ccncc2c1=O [Compound E50, 1-(5-(4-((1-(4-(2-butyl-1-oxo-1,2-dihydro-2,7-naphthyridin-4-yl)-2,6-dimethoxyphenethyl)-piperidin-4-yl)oxy)piperidine-1-carbonyl)-2-meth-oxyphenyl)dihydro-pyrimidine-2,4(1H,3H)-dione]	13.47%	0.008 µM
COc1cc(-c2cn(C)c(=O)c(C)c2C)c(OC)cc1CN1CCC(OC2CCN(C(=O)c3ccc(Cl)c(N4CCC(=O)NC4=O)c3)CC2)CC1 [Compound A18, 1-(2-Chloro-5-(4-((1-(2,5-dimethoxy-4-(1,4,5-trimethyl-6-oxo-1,6-dihydropyridin-3-yl)benzyl)piperidin-4-yl)oxy)piperidine-1-carbonyl)phenyl)dihydropyrimidine-2,4(1H,3H)-dione]	11.83%	0.015 µM
CCCCn1cc(-c2cc(OC)c(OC3CCN(CC4CCN(C(=O)c5ccc(OC)c(N6CCC(=O)NC6=O)c5)CC4)CC3)c(OC)c2)c2ccncc2c1=O [Compound B10, 1-(5-(4-((4-(4-(2-butyl-1-oxo-1,2-dihydro-2,7-naphthyridin-4-yl)-2,6-dimethoxyphenoxy)piperidin-1-yl)methyl)piperidine-1-carbonyl)-2-methoxyphenyl)dihydropyrimidine-2,4(1H,3H)-dione]	16.55%	0.006 µM
CCCCn1cc(-c2ccc(O[C@H]3CCN(CC4CCN(C(=O)c5ccc(OC)c(N6CCC(=O)NC6=O)c5)CC4)C[C@@H]3F)c(OC)c2)c2ccncc2c1=O [Compound E32, 1-(5-(4-(((3S,4S)-4-(4-(2-Butyl-1-oxo-1,2-dihydro-2,7-naphthyridin-4-yl)-2-methoxyphenoxy)-3-fluoropiperidin-1-yl)methyl)piperidine-1-carbonyl)-2-methoxyphenyl)dihydropyrimidine-2,4(1H,3H)-dione]	17.58%	0.001 µM
COc1cc(-c2cn(C)c(=O)c3cnccc23)c(OC)cc1CCN1CCC(OC2CCN(C(=O)c3ccc(Cl)c(N4CCC(=O)NC4=O)c3)CC2)CC1 [Compound A39, 1-(2-Chloro-5-(4-((1-(2,5-dimethoxy-4-(2-methyl-1-oxo-1,2-dihydro-2,7-naphthyridin-4-yl)phenethyl)piperidin-4-yl)oxy)piperidine-1-carbonyl)phenyl)dihydropyrimidine-2,4(1H,3H)-dione]	16.72%	0.021 µM
COc1ccc(C(=O)N2CCC(CN3CCC(Oc4ccc(-c5cn(C)c(=O)c6cnccc56)cc4Cl)CC3)CC2)cc1N1CCC(=O)NC1=O [Compound A17, 1-(5-(4-((4-(2-Chloro-4-(2-methyl-1-oxo-1,2-dihydro-2,7-naphthyridin-4-yl)phenoxy)piperidin-1-yl)methyl)piperidine-1-carbonyl)-2-methoxyphenyl)dihydropyrimidine-2,4(1H,3H)-dione]	32.92%	0.011 µM
CCCCn1cc(-c2cc(OC)c(CCN3CC[C@@H](OC4CCN(C(=O)c5ccc(Cl)c(N6CCC(=O)NC6=O)c5)CC4)[C@H](F)C3)cc2OC)c2ccncc2c1=O [Compound E47, 1-(5-(4-(((3R,4R)-1-(4-(2-butyl-1-oxo-1,2-dihydro-2,7-naphthyridin-4-yl)-2,5-dimethoxyphenethyl)-3-fluoropiperidin-4-yl)oxy)piperidine-1-carbonyl)-2-chlorophenyl)dihydro-pyrimidine-2,4(1H,3H)-dione]	32.89%	0.049 µM
COc1cc(-c2cn(C)c(=O)c(C)c2C)ccc1CN1CCN(CC2CCN(C(=O)c3cccc(N4CCC(=O)NC4=O)c3)CC2)CC1 [Compound A15, 1-(3-(4-((4-(2-Methoxy-4-(1,4,5-trimethyl-6-oxo-1,6-dihydropyridin-3-yl)benzyl)piperazin-1-yl)methyl)piperidine-1-carbonyl)phenyl)dihydropyrimidine-2,4(1H,3H)-dione]	29.47%	0.049 µM
CCCCCCn1cc(-c2cc(OC)c(CN3CCC(OC4CCN(C(=O)c5ccc(OC)c(N6CCC(=O)NC6=O)c5)CC4)CC3)c(OC)c2)c2ccncc2c1=O [Compound E40, 1-(5-(4-((1-(4-(2-Hexyl-1-oxo-1,2-dihydro-2,7-naphthyridin-4-yl)-2,6-dimethoxybenzyl)piperidin-4-yl)oxy)piperidine-1-carbonyl)-2-methoxyphenyl)dihydropyrimidine-2,4(1H,3H)-dione]	10.51%	0.029 µM
COc1cc(-c2cn(C)c(=O)c3cnccc23)cc(OC)c1CN1CCC(OC2CCN(CCn3cccc(CN4CCC(=O)NC4=O)c3=O)CC2)CC1 [Compound C2, 1-((1-(2-(4-((1-(2,6-dimethoxy-4-(2-methyl-1-oxo-1,2-dihydro-2,7-naphthyridin-4-yl)benzyl)piperidin-4-yl)oxy)piperidin-1-yl)ethyl)-2-oxo-1,2-dihydropyridin-3-yl)methyl)dihydropyrimidine-2,4(1H,3H)-dione]	11.95%	0.029 µM
